From PubChem BioAssay (NCI)
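Where inhibition never reached the appropriate level, the endpoint shown equals the highest concentration tested. Otherwise, values were interpolated linearly from a five-concentration, 48-hour dose response in 96-well plates. GI50 is the concentration that inhibits growth by half. TGI is the concentration that stops growth completely.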

What was measured:
Experiment in all cases: inhibition of tumour cell growth, NCI panel, 48 h
786-0 renal = tested on: 786-0 renal
A498 renal = tested on: A498 renal
A549 NSCLC = tested on: A549 NSCLC
ACHN renal = tested on: ACHN renal
BT-549 breast = tested on: BT-549 breast
CAKI-1 renal = tested on: CAKI-1 renal
CCRF-CEM leukemia = tested on: CCRF-CEM leukemia
COLO 205 colon = tested on: COLO 205 colon
DU-145 prostate = tested on: DU-145 prostate
EKVX NSCLC = tested on: EKVX NSCLC
HCC-2998 colon = tested on: HCC-2998 colon
HCT-116 colon = tested on: HCT-116 colon
HCT-15 colon = tested on: HCT-15 colon
HL-60(TB) leukemia = tested on: HL-60(TB) leukemia
HOP-62 NSCLC = tested on: HOP-62 NSCLC
HOP-92 NSCLC = tested on: HOP-92 NSCLC
HS 578T breast = tested on: HS 578T breast
HT29 colon = tested on: HT29 colon
IGROV1 ovarian = tested on: IGROV1 ovarian
K-562 leukemia = tested on: K-562 leukemia
KM12 colon = tested on: KM12 colon
LOX IMVI melanoma = tested on: LOX IMVI melanoma
M14 melanoma = tested on: M14 melanoma
MALME-3M melanoma = tested on: MALME-3M melanoma
MCF7 breast = tested on: MCF7 breast
MDA-MB-231 breast = tested on: MDA-MB-231 breast
MDA-MB-435 = tested on: MDA-MB-435
MDA-N = tested on: MDA-N
MOLT-4 leukemia = tested on: MOLT-4 leukemia
NCI-H226 lung = tested on: NCI-H226 lung
NCI-H23 lung = tested on: NCI-H23 lung
NCI-H460 lung = tested on: NCI-H460 lung
NCI/ADR-RES ovarian = tested on: NCI/ADR-RES ovarian
OVCAR-3 ovarian = tested on: OVCAR-3 ovarian
OVCAR-4 ovarian = tested on: OVCAR-4 ovarian
OVCAR-5 ovarian = tested on: OVCAR-5 ovarian
OVCAR-8 ovarian = tested on: OVCAR-8 ovarian
PC-3 prostate = tested on: PC-3 prostate
RPMI-8226 leukemia = tested on: RPMI-8226 leukemia
RXF 393 renal = tested on: RXF 393 renal
SF-268 CNS = tested on: SF-268 CNS
SF-295 CNS = tested on: SF-295 CNS
SF-539 CNS = tested on: SF-539 CNS
SK-MEL-2 melanoma = tested on: SK-MEL-2 melanoma
SK-MEL-28 melanoma = tested on: SK-MEL-28 melanoma
SK-MEL-5 melanoma = tested on: SK-MEL-5 melanoma
SK-OV-3 ovarian = tested on: SK-OV-3 ovarian
SN12C renal = tested on: SN12C renal
SNB-19 CNS = tested on: SNB-19 CNS
SNB-75 CNS = tested on: SNB-75 CNS
SR leukemia = tested on: SR leukemia
T-47D breast = tested on: T-47D breast
TK-10 renal = tested on: TK-10 renal
U251 CNS = tested on: U251 CNS
UACC-257 melanoma = tested on: UACC-257 melanoma
UACC-62 melanoma = tested on: UACC-62 melanoma
UO-31 renal = tested on: UO-31 renal

COc1cc(/C=C/c2ccc(S(N)(=O)=O)cc2)cc(OC)c1
TGI (786-0 renal): 50.5 µM | TGI (A498 renal): 39.5 µM | GI50 (A549 NSCLC): 20.7 µM | TGI (A549 NSCLC): 71.9 µM | GI50 (ACHN renal): 23.5 µM | TGI (ACHN renal): 66.3 µM | GI50 (BT-549 breast): 10.7 µM | TGI (BT-549 breast): 41.1 µM | GI50 (CAKI-1 renal): 19 µM | TGI (CAKI-1 renal): 47.3 µM | GI50 (CCRF-CEM leukemia): 19.9 µM | TGI (CCRF-CEM leukemia): 52.3 µM | TGI (COLO 205 colon): 32.4 µM | TGI (DU-145 prostate): 72.8 µM | TGI (EKVX NSCLC): 86 µM | TGI (HCC-2998 colon): 38.1 µM | TGI (HCT-116 colon): 27.5 µM | GI50 (HCT-15 colon): 17.4 µM | TGI (HCT-15 colon): 53.5 µM | GI50 (HL-60(TB) leukemia): 18.6 µM | TGI (HL-60(TB) leukemia): 42.6 µM | TGI (HOP-62 NSCLC): 62.7 µM | GI50 (HOP-92 NSCLC): 15 µM | TGI (HOP-92 NSCLC): 43.9 µM | GI50 (HS 578T breast): 20.1 µM | TGI (HS 578T breast): 48.5 µM | GI50 (HT29 colon): 16.2 µM | TGI (HT29 colon): 33.2 µM | GI50 (IGROV1 ovarian): 23.1 µM | TGI (IGROV1 ovarian): 45.5 µM | GI50 (K-562 leukemia): 28.7 µM | TGI (K-562 leukemia): 76.7 µM | GI50 (KM12 colon): 20.8 µM | TGI (KM12 colon): 57.6 µM | GI50 (LOX IMVI melanoma): 18.2 µM | TGI (LOX IMVI melanoma): 34 µM | TGI (M14 melanoma): > 100 µM | TGI (MALME-3M melanoma): 41.6 µM | TGI (MCF7 breast): 75.1 µM | TGI (MDA-MB-231 breast): 46.6 µM | GI50 (MDA-MB-435): 18.7 µM | TGI (MDA-MB-435): 40 µM | TGI (MDA-N): 56 µM | GI50 (MOLT-4 leukemia): 18.6 µM | TGI (MOLT-4 leukemia): 43.9 µM | GI50 (NCI-H226 lung): 12.3 µM | TGI (NCI-H226 lung): 38.1 µM | GI50 (NCI-H23 lung): 22.5 µM | TGI (NCI-H23 lung): 49.8 µM | TGI (NCI-H460 lung): 42.9 µM | TGI (NCI/ADR-RES ovarian): 89.7 µM | TGI (OVCAR-3 ovarian): 33.2 µM | GI50 (OVCAR-4 ovarian): 21.2 µM | TGI (OVCAR-4 ovarian): 50.9 µM | TGI (OVCAR-5 ovarian): > 100 µM | GI50 (OVCAR-8 ovarian): 37.9 µM | TGI (OVCAR-8 ovarian): > 100 µM | TGI (PC-3 prostate): 56.1 µM | GI50 (RPMI-8226 leukemia): 14.3 µM | TGI (RPMI-8226 leukemia): 31.5 µM | TGI (RXF 393 renal): 34.1 µM | GI50 (SF-268 CNS): 28.3 µM | TGI (SF-268 CNS): > 100 µM | TGI (SF-295 CNS): 55.5 µM | GI50 (SF-539 CNS): 18.8 µM | TGI (SF-539 CNS): 46.2 µM | TGI (SK-MEL-2 melanoma): 40.3 µM | TGI (SK-MEL-28 melanoma): 56.8 µM | TGI (SK-MEL-5 melanoma): 29.8 µM | TGI (SK-OV-3 ovarian): 75.7 µM | TGI (SN12C renal): 55.2 µM | TGI (SNB-19 CNS): > 100 µM | TGI (SNB-75 CNS): 53.1 µM | GI50 (SR leukemia): 19.7 µM | TGI (SR leukemia): 38 µM | TGI (T-47D breast): 41.6 µM | TGI (TK-10 renal): 53.9 µM | GI50 (U251 CNS): 17.1 µM | TGI (U251 CNS): > 100 µM | TGI (UACC-257 melanoma): 46.8 µM | GI50 (UACC-62 melanoma): 15.4 µM | TGI (UACC-62 melanoma): 30.3 µM | TGI (UO-31 renal): 52 µM
